Test results reported in patent US6555499B1, “Herbicide agent” (Syngenta Crop Protection, Inc., priority 1999, dated 2003).

How the values were obtained:
[1] = tested on: Apera; assay: Post-emergence test, Example B1: Apera; format: in vivo; details: greenhouse, herbicide 25 g/ha, where combined cloquintocet-mexyl 6.25 g/ha, MERGE 1% by weight of spray mixture, evaluated after 2 to 4 weeks, 100%=complete destruction
Description: (§1) A standard soil is used as cultivation substrate.
(§2) The rate of application of herbicide is in each case 25 g/ha; the rate of application of cloquintocet-mexyl is 6.25 g/ha. As oil additive, MERGE® is used in a concentration of 1% by weight of the spray mixture.

[2] = tested on: Avena; assay: Post-emergence test, Example B1: Avena; format: in vivo; details: greenhouse, herbicide 25 g/ha, where combined cloquintocet-mexyl 6.25 g/ha, MERGE 1% by weight of spray mixture, evaluated after 2 to 4 weeks, 100%=complete destruction
Description: as §1, §2

[3] = tested on: Alopecurus; assay: Post-emergence test, Example B1: Alopecurus; format: in vivo; details: greenhouse, herbicide 25 g/ha, where combined cloquintocet-mexyl 6.25 g/ha, MERGE 1% by weight of spray mixture, evaluated after 2 to 4 weeks, 100%=complete destruction
Description: as §1, §2

[4] = tested on: weeds; assay: Post-emergence test, Example B1: weeds overall, in words; format: in vivo, Apera, Alopecurus, Avena; details: herbicide 25 g/ha, where combined cloquintocet-mexyl 6.25 g/ha, MERGE 1%
Description: as §1, §2

## CCc1cc(C)cc(CC)c1-c1c(OC(=O)C(C)(C)C)n2n(c1=O)CCOCC2 [compound no. 1.008]
[1]
  Herbicidal action on Apera: 25%
[2]
  Herbicidal action on Avena: 20%
[3]
  Herbicidal action on Alopecurus: 20%
[4]
  Herbicidal action on the weeds (in words): only slight to moderate herbicidal action

## CCc1cc(C)cc(CC)c1C1C(=O)N2CCOCCN2C1=O [compound no. 1.007]
[1]
  Herbicidal action on Apera: 60%
[2]
  Herbicidal action on Avena: 10%
[3]
  Herbicidal action on Alopecurus: 10%
[4]
  Herbicidal action on the weeds (in words): only slight to moderate herbicidal action
